Literature values, collected in US20210137911A1, “NOVEL CHRONOTHERAPY BASED ON CIRCADIAN RHYTHMS” (THE TRUSTEES OF THE UNIVERSITY OF PENNSYLVANIA, priority 2014, published 2021).
Where two headings read alike, the source gives them in different places.

Conditions: cited from earlier work
[1] = half-life of therapeutic compound as listed in Table 1

## CC(C)C[C@H](NC(=O)[C@@H](Cc1ccc2ccccc2c1)NC(=O)[C@H](Cc1ccc(O)cc1)NC(=O)[C@H](CO)NC(=O)[C@H](Cc1c[nH]c2ccccc12)NC(=O)[C@H](Cc1c[nH]cn1)NC(=O)[C@@H]1CCC(=O)N1)C(=O)N[C@@H](CCCNC(=N)N)C(=O)N1CCC[C@H]1C(=O)NCC(N)=O [Nafarelin]
In vivo
  ½ Life: 3 h

## C=CCN1CC[C@]23c4c5ccc(O)c4O[C@H]2C(=O)CC[C@@]3(O)[C@H]1C5 [Naloxone]
[1]
  ½ Life: 0.5 h

## CNS(=O)(=O)CCc1ccc2[nH]cc(C3CCN(C)CC3)c2c1 [Naratriptan]
[1]
  ½ Life: 5 h

## CC(C)[C@H]1CC[C@H](C(=O)N[C@H](Cc2ccccc2)C(=O)O)CC1 [Nateglinide]
[1]
  ½ Life: 1.5 h

## CCc1nn(CCCN2CCN(c3cccc(Cl)c3)CC2)c(=O)n1CCOc1ccccc1 [Nefazodone]
[1]
  ½ Life: 2 h

## O=C(O)c1cccnc1Nc1cccc(C(F)(F)F)c1 [Niflumic Acid]
[1]
  ½ Life: 2.5 h

## CS(=O)(=O)Nc1ccc([N+](=O)[O-])cc1Oc1ccccc1 [Nimesulide]
In vivo
  ½ Life: 1.8 h

## COCCOC(=O)C1=C(C)NC(C)=C(C(=O)OC(C)C)C1c1cccc([N+](=O)[O-])c1 (stereo not shown) [Nimodipine]
[1]
  ½ Life: 1.7 h

## CC(=O)Oc1ccccc1C(=O)Nc1ncc([N+](=O)[O-])s1 [Nitazoxanide]
[1]
  ½ Life: 3.5 h

## O=C(O)c1cc(/N=N/c2ccc(O)c(C(=O)O)c2)ccc1O [Olsalazine]
[1]
  ½ Life: 0.9 h

## COc1ccc2[nH]c([S+]([O-])Cc3ncc(C)c(OC)c3C)nc2c1 (stereo not shown) [Omeprazole]
[1]
  ½ Life: 0.5 h

## Cc1nccn1CC1CCc2c(c3ccccc3n2C)C1=O (stereo not shown) [Ondansetron]
[1]
  ½ Life: 5.7 h

## CCCCCCCCCCC[C@@H](C[C@@H]1OC(=O)[C@H]1CCCCCC)OC(=O)[C@H](CC(C)C)NC=O [Orlistat]
[1]
  ½ Life: 1 h

## CCOC(=O)C1=C[C@@H](OC(CC)CC)[C@H](NC(C)=O)[C@@H](N)C1 [Oseltamivir]
[1]
  ½ Life: 1 h

## C[C@]12COC(=O)C[C@@H]1CC[C@@H]1[C@@H]2CC[C@@]2(C)[C@H]1CC[C@]2(C)O [Oxandrolone]
[1]
  ½ Life: 0.55 h

## C=CCOc1ccccc1OCC(O)CNC(C)C (stereo not shown) [Oxprenolol]
[1]
  ½ Life: 1 h

## Cn1c(=O)c2[nH]cnc2n(C)c1=O [Oxtriphylline]
[1]
  ½ Life: 3 h

## COc1ccc2c3c1O[C@H]1C(=O)CC[C@@]4(O)[C@@H](C2)N(C)CC[C@]314 [Oxycodone]
[1]
  ½ Life: 4.5 h

## CN1CC[C@]23c4c5ccc(O)c4O[C@H]2C(=O)CC[C@@]3(O)[C@H]1C5 [Oxymorphone]
[1]
  ½ Life: 1.3 h

## CC[C@H](C)[C@@H]1NC(=O)[C@H](Cc2ccc(O)cc2)NC(=O)[C@@H](N)CSSC[C@@H](C(=O)N2CCC[C@H]2C(=O)N[C@@H](CC(C)C)C(=O)NCC(N)=O)NC(=O)[C@H](CC(N)=O)NC(=O)[C@H](CCC(N)=O)NC1=O [Oxytocin]
In vivo
  ½ Life: 0.0166 h

## CC(=O)O[C@H]1C[C@@H]2CC[C@@H]3[C@H](CC[C@@]4(C)[C@H]3C[C@H]([N+]3(C)CCCCC3)[C@@H]4OC(C)=O)[C@@]2(C)C[C@@H]1[N+]1(C)CCCCC1 [Pancuronium]
In vivo
  ½ Life: 1.5 h

## COc1ccnc(C[S+]([O-])c2nc3ccc(OC(F)F)cc3[nH]2)c1OC (stereo not shown) [Pantoprazole]
[1]
  ½ Life: 1 h

## COc1ccc(Cc2nccc3cc(OC)c(OC)cc23)cc1OC [Papaverine]
In vivo
  ½ Life: 0.5 h

## C[C@H](/C=C/[C@H](C)C(C)(C)O)[C@H]1CC[C@H]2/C(=C/C=C3C[C@@H](O)C[C@H](O)C3)CCC[C@]12C [Paricalcitol]
[1]
  ½ Life: 4 h

## Nc1nc2[nH]cc(CCc3ccc(C(=O)N[C@@H](CCC(=O)O)C(=O)O)cc3)c2c(=O)[nH]1 [Pemetrexed]
[1]
  ½ Life: 3.5 h

## CSCC[C@H](NC(=O)[C@H](Cc1c[nH]c2ccccc12)NC(=O)CCNC(=O)OC(C)(C)C)C(=O)N[C@@H](CC(=O)O)C(=O)N[C@@H](Cc1ccccc1)C(N)=O [Pentagastrin]
In vivo
  ½ Life: 0.166 h

## CCCC(C)C1(CC)C(=O)NC(=O)NC1=O (stereo not shown) [Pentobarbital]
In vivo
  ½ Life: 5 h

## OC[C@H]1O[C@@H](n2cnc3c2NC=NC[C@H]3O)C[C@@H]1O [Pentostatin]
[1]
  ½ Life: 5.7 h

## C1CCC(C(CC2CCCCN2)C2CCCCC2)CC1 (stereo not shown) [Perhexiline]
[1]
  ½ Life: 2 h

## CCC[C@H](N[C@@H](C)C(=O)N1[C@H](C(=O)O)C[C@@H]2CCCC[C@@H]21)C(=O)OCC [Perindopril]
[1]
  ½ Life: 1.2 h

## CCOC(=O)C1(c2ccccc2)CCN(C)CC1 [Pethidine]
In vivo
  ½ Life: 1 h

## NNCCc1ccccc1 [Phenelzine]
[1]
  ½ Life: 1.2 h

## O=C1c2ccccc2C(=O)C1c1ccccc1 [Phenindione]
[1]
  ½ Life: 5 h

## CNC[C@H](O)c1cccc(O)c1 [Phenylephrine]
[1]
  ½ Life: 2.1 h

## CC(N)C(O)c1ccccc1 (stereo not shown) [Phenylpropanolamine]
In vivo
  ½ Life: 2.1 h

## CC[C@@H]1C(=O)OC[C@@H]1Cc1cncn1C [Pilocarpine]
[1]
  ½ Life: 0.76 h

## CC(C)NCC(O)COc1cccc2[nH]ccc12 (stereo not shown) [Pindolol]
[1]
  ½ Life: 3 h

## CCc1ccc(CCOc2ccc(CC3SC(=O)NC3=O)cc2)nc1 (stereo not shown) [Pioglitazone]
[1]
  ½ Life: 3 h

## Cc1ccc(=O)n(-c2ccccc2)c1 [Pirfenidone]
[1]
  ½ Life: 2 h

## c1cc(CN2CCCNCCNCCCNCC2)ccc1CN1CCCNCCNCCCNCC1 [Plerixafor]
[1]
  ½ Life: 4.4 h

## COc1cc([C@@H]2c3cc4c(cc3[C@H](O)[C@H]3COC(=O)[C@H]23)OCO4)cc(OC)c1OC [Podofilox]
[1]
  ½ Life: 1 h

## C[n+]1ccccc1/C=N/O [Pralidoxime]
[1]
  ½ Life: 1.233 h

## CC[C@H](C)[C@H](NC(=O)[C@@H]1CCCN1C(=O)CNC(=O)[C@H](Cc1ccccc1)NC(=O)[C@H](CC(N)=O)NC(=O)[C@H](CC(N)=O)NC(=O)[C@H](CO)NC(=O)[C@H](CO)NC(=O)[C@H](Cc1c[nH]cn1)NC(=O)[C@@H](NC(=O)[C@H](CC(C)C)NC(=O)[C@H](Cc1ccccc1)NC(=O)[C@H](CC(N)=O)NC(=O)[C@H](C)NC(=O)[C@H](CC(C)C)NC(=O)[C@H](CCCNC(=N)N)NC(=O)[C@H](CCC(N)=O)NC(=O)[C@@H](NC(=O)[C@H](C)NC(=O)[C@@H]1CSSC[C@H](NC(=O)[C@@H](N)CCCCN)C(=O)N[C@@H](CC(N)=O)C(=O)N[C@@H]([C@@H](C)O)C(=O)N[C@@H](C)C(=O)N[C@@H]([C@@H](C)O)C(=O)N1)[C@@H](C)O)C(C)C)C(=O)N[C@@H](CC(C)C)C(=O)N1CCC[C@H]1C(=O)N1CCC[C@H]1C(=O)N[C@H](C(=O)N[C@@H](CC(N)=O)C(=O)N[C@H](C(=O)NCC(=O)N[C@@H](CO)C(=O)N[C@@H](CC(N)=O)C(=O)N[C@H](C(=O)N[C@@H](Cc1ccc(O)cc1)C(N)=O)[C@@H](C)O)C(C)C)[C@@H](C)O [Pramlintide]
In vivo
  ½ Life: 0.8 h

## C[C@]12C=CC(=O)C=C1CC[C@@H]1[C@@H]2[C@@H](O)C[C@@]2(C)[C@H]1CC[C@]2(O)C(=O)CO [Prednisolone]
In vivo
  ½ Life: 2 h

## COc1cc(NC(C)CCCN)c2ncccc2c1 (stereo not shown) [Primaquine]
[1]
  ½ Life: 3.7 h

## CCC1(c2ccccc2)C(=O)NCNC1=O [Primidone]
[1]
  ½ Life: 3 h

## CCN(CC)CCOC(=O)c1ccc(N)cc1 [Procaine]
[1]
  ½ Life: 0.1283 h

## NC(=O)CCC/N=C(\c1ccc(Cl)cc1)c1cc(F)ccc1O [Progabide]
[1]
  ½ Life: 4 h

## CC(C)c1cccc(C(C)C)c1O [Propofol]
In vivo
  ½ Life: 1 h

## CCCc1cc(=O)[nH]c(=S)[nH]1 [Propylthiouracil]
In vivo
  ½ Life: 2 h

## CN(C)C(=O)Oc1ccc[n+](C)c1 [Pyridostigmine]
In vivo
  ½ Life: 3 h

## CCOC(=O)[C@H](CCc1ccccc1)N[C@@H](C)C(=O)N1Cc2ccccc2C[C@H]1C(=O)O [Quinapril]
In vivo
  ½ Life: 2 h

## COCCCOc1ccnc(C[S+]([O-])c2nc3ccccc3[nH]2)c1C (stereo not shown) [Rabeprazole]
In vivo
  ½ Life: 1 h

## CCC(=O)NCC[C@@H]1CCc2ccc3c(c21)CCO3 [Ramelteon]
In vivo
  ½ Life: 1 h

## CCOC(=O)[C@H](CCc1ccccc1)N[C@@H](C)C(=O)N1[C@H](C(=O)O)C[C@@H]2CCC[C@@H]21 [Ramipril, reference compound]
In vivo
  ½ Life: 2 h
See Table 1
  minimum reported half-life: 2 h

## C#CCN[C@@H]1CCc2ccccc21 [Rasagiline]
In vivo
  ½ Life: 3 h

## CNC(=O)c1cnn(-c2nc(N)c3ncn([C@@H]4O[C@H](CO)[C@@H](O)[C@H]4O)c3n2)c1 [Regadenoson]
In vivo
  ½ Life: 0.033 h

## CCOc1cc(CC(=O)N[C@@H](CC(C)C)c2ccccc2N2CCCCC2)ccc1C(=O)O [Repaglinide]
In vivo
  ½ Life: 1 h

## O=P(O)(O)C(O)(Cc1cccnc1)P(=O)(O)O [Risedronate]
In vivo
  ½ Life: 1.5 h

## CC(NCCc1ccc(O)cc1)C(O)c1ccc(O)cc1 (stereo not shown) [Ritodrine]
In vivo
  ½ Life: 1.7 h

## CCN(C)C(=O)Oc1cccc([C@H](C)N(C)C)c1 [Rivastigmine]
In vivo
  ½ Life: 1.5 h

## CN(C)CCc1c[nH]c2ccc(Cn3cncn3)cc12 [Rizatriptan]
In vivo
  ½ Life: 2 h

## C=CC[N+]1([C@H]2C[C@H]3[C@@H]4CC[C@H]5C[C@H](O)[C@@H](N6CCOCC6)C[C@]5(C)[C@H]4CC[C@]3(C)[C@H]2OC(C)=O)CCCC1 [Rocuronium]
In vivo
  ½ Life: 1 h

## CN(CCOc1ccc(CC2SC(=O)NC2=O)cc1)c1ccccn1 (stereo not shown) [Rosiglitazone]
In vivo
  ½ Life: 3 h

## CCCN(CCc1cccs1)[C@H]1CCc2c(O)cccc2C1 [Rotigotine]
In vivo
  ½ Life: 5 h

## CCCCP(=O)(O)CCCN [SGS742]
In vivo
  ½ Life: 4 h

## OCc1cc(C(O)CNCCCCCCOCCCCc2ccccc2)ccc1O (stereo not shown) [Salmeterol]
In vivo
  ½ Life: 5.5 h

## O=C(Oc1ccccc1C(=O)O)c1ccccc1O [Salsalate]
In vivo
  ½ Life: 1 h

## C#CCN(C)[C@H](C)Cc1ccccc1 [Selegiline]
In vivo
  ½ Life: 1.2 h

## CC(C)CC(N(C)C)C1(c2ccc(Cl)cc2)CCC1 (stereo not shown) [Sibutramine]
In vivo
  ½ Life: 1.1 h

## CCC(C)(C)C(=O)O[C@H]1C[C@@H](C)C=C2C=C[C@H](C)[C@H](CC[C@@H]3C[C@@H](O)CC(=O)O3)[C@H]21 [Simvastatin, reference compound]
See Table 1
  half-life: less than three

## CC(=O)S[C@@H]1CC2=CC(=O)CC[C@]2(C)[C@H]2CC[C@@]3(C)[C@@H](CC[C@@]34CCC(=O)O4)[C@H]12 [Spironolactone]
In vivo
  ½ Life: 0.166 h
